Assay results reported in paper PMC12439141, “Self-Assembling Hydrogels of Naproxen-Conjugated Peptides for Osteoarthritis Treatment” (Theranostics, 2025).

Columns and labels:
OA rat model [1] = experiment: Footprint gait analysis in MIA-induced OA rats; type: in vivo, SD rats; details: IA injection, 100 mg/kg, 2 weeks
Description: The OA model was induced by local injection of 50 µL/1mg sodium iodoacetate (MIA) into the joint cavity of each rat. Rats injected with saline were treated as the sham group (n = 6). […] Each group contained 6 rats. 50 µL drugs were injected locally at day 0 and day 14, respectively. After 14 days of treatment, the rats were examined by indentation-collecting gait analysis, after which the rats were euthanized with isoflurane, and the knee joints were sampled for gross morphological observation. After 28 days of treatment, sampling was performed for micro-CT analysis, histological staining and immunohistochemistry.
The cardboard is laid flat on the floor. Both forelimbs of the rats were covered with blue ink and both hind legs with red ink, ensuring that the movements of the animals were as clear as possible. The sides of the runway consisted of cardboard, and the width was rationalized according to the weight and size of the rat. The room environment was kept quiet and the rats were placed on one side of the runway and allowed to pass freely. Before the start of the experiment, the rats were given two consecutive days of behavioral acclimatization training.

[2] = tested on: LPS-stimulated RAW264.7 cells; experiment: COX-2 and pro-inflammatory factor expression (qRT-PCR, immunofluorescence); type: cell-based, mouse; details: RAW264.7, 1 µg/mL LPS, 400 µM; 6 h, 12 h (PCR), 12 h or 24 h (immunofluorescence)
Description: After treatment, cells were harvested and total RNA was extracted using a total RNA purification kit (SparkJade, China), and cDNA was obtained from total RNA by a reverse transcription kit (SparkJade). Finally, qRT-PCR was performed using SYBR Green qPCR premix (SparkJade) on QuantGene 9600 real-time PCR (Bioer, Hangzhou, China). 2 Calculation of Relative Gene Expression-ΔΔCT method was used, and GAPDH was used as an internal reference gene.
Immunofluorescence staining was performed following a general procedure. After treatment, cells were fixed with 4% paraformaldehyde for 20 min, and permeabilized in 0.5% Triton X-100 for 5 min. 10% goat serum was used to block non-specific binding. Cells were then incubated with primary antibodies overnight. Then cells were incubated with fluorescently labeled secondary antibody for 1 h. […] For assessing RAW264.7 macrophage polarization, permeabilization procedure is not needed; anti-CD86 and anti-CD163 primary antibodies were used for identifying M1 macrophage or M2 macrophage, respectively. Primary antibodies included: anti-CD86 (1:300), anti-CD163 (1:300), anti-COX2 (1:300) and anti-COL2 (1:300). Cy3 or FITC labeled secondary antibodies were used for fluorescent imaging.

[3] = Zeta potential measurements; type: physicochemical; details: 400 µM; pH:7.2 (Figure 2F legend), text says physiological pH 7.4
Source text: Scale bars represent 200 nm.
Under physiological conditions, glutamic acid carries a negative charge, while histidine, lysine, and arginine carry positive charges.

[4] = ABTS+ free radical scavenging test; details: PBS (pH 7.2), 400 µM, 30 mins, 25 °C, absorbance 734 nm, n = 3
Description: (§1) DPPH free radical scavenging test
(§2) DPPH (2, 2-Diphenyl -1-[…]) radical solution (0.58 mg/mL) was prepared by dissolving DPPH radical in anhydrous ethanol. Briefly, 6mg of […]
(§3) solution which were then incubated in dark for 2 h at 25°C. The absorbance of the mixed solution at 517 nm was measured using an enzyme-labeled instrument. The scavenging ability was calculated as DPPH free radical scavenging rate (%) = [(A0-A1)/A0] × 100%, where A0 is the absorbance of DPPH free radical solution, A1 is the absorbance of sample group. The experiment was repeated three times for each sample.
(§4) ABTS·+ free radical scavenging test […]
(§5) free radical solution, and then incubated at 25 °C for 30 mins in dark. The absorbance at 734 nm was measured using an enzyme-labeled instrument.
(§6) ABTS+ free radical scavenging activity is calculated according to the following formula: ABTS+ free radical scavenging rate (%) = [(A0-A1)/A0] × 100%, where A0 is the absorbance of ABTS+ free radical solution, and A1 is the absorbance of sample group. […]
(§7) Figure S14. Quantitative analysis of immunofluorescent staining of macrophages in Figure 5A and 5B. […]
(§8) Figure S16. Quantitative analysis of ROS fluorescent intensities (A) in Figure 5D, and fluorescent ratio of JC-1 in aggregate to monomer (B) in Figure 5E. […]

[5] = TEM imaging of assemblies; type: physicochemical; details: TEM images
Description: (C) FTIR spectra of NpxFFR (light green), NpxFFK (orange), NpxFFH (dark green), NpxFFE (purple) and Npx (medium spring green). (D) Hydrogel formation of Npx-peptide conjugates at 20 mg/mL concentration in ddH2O. […] (F) Zeta potential measurements of 400 µM Npx-peptide conjugates at pH:7.2. (G) TEM images of Npx and Npx-peptide conjugates. Scale bars represent 200 nm.

[6] = DPPH free radical scavenging test; details: PBS (pH 7.2), 400 µM, 2 h, 25 °C, absorbance 517 nm, n = 3
Description: as §1, §2, §3, §4, §5, §6, §7, §8

[7] = tested on: LPS-stimulated RAW264.7 cells; experiment: ELISA quantification of PGE2; type: cell-based, mouse; details: 400 µM, 6 h, 12 h, n = 3
Source text: Figure 4 COX-2 inhibition of NpxFFK. (A) molecular docking of COX-2 (PDB ID: 6COX) with NpxFFK. (B) Binding of NpxFFK with amino acid residues in the active pocket of COX-2. (C) Schematic representation of the anti-inflammatory mechanism of Npx and the peptide NpxFFK. […] Scale bars represent 200 µm. […] The blank groups in panel D-G referred to the RAW264.7 cells without stimulation of LPS.

OA rat model [8] = experiment: Immunofluorescence and immunohistochemistry of joint sections in OA rats; type: in vivo, SD rats; details: 100 mg/kg IA, 4 weeks
Description: The knee joints were fixed in 4% paraformaldehyde, decalcified for 4 weeks, and embedded in paraffin for histological evaluation. Subsequently, the samples were sectioned and stained with hematoxylin and eosin (H&E) as well as […]/Fast Green. An enhanced Mankin scoring system was used to assess the pathologic status of the knee joint. Sections were incubated overnight at 4 °C with primary antibodies and further stained with a fluorescently labeled secondary antibody or 3,3'-diaminobenzidine (DAB)-tagged secondary antibody for immunohistochemical analysis.

C28/I2 chondrocytes = experiment: Chondrocyte proliferation (Calcein-AM staining and MTT quantification); type: cell-based, human; details: C28/I2 chondrocytes, 1, 2 and 3 days, compared to non-treated control

## COc1ccc2cc([C@H](C)C(=O)O)ccc2c1 [Npx, naproxen]
OA rat model [1]; sham 12.83 cm, saline 7.57 cm
  Stride length: 9.42 cm
OA rat model [1]; versus sham and saline
  Hindpaw contact area: partial improvement
[2]
  COX-2 expression at gene level and protein level: downregulated COX-2 expression
[3]
  Zeta Potential: -20.3 mV
[4]
  ABTS+ radical scavenging activity: neglectable radical scavenge activity
[5]
  Morphology of assemblies (TEM): uneven aggregates
[6]
  DPPH radical scavenging activity: neglectable radical scavenge activity
[7]
  PGE2 production: reduced PGE2 production
OA rat model [8]
  Expression of COX-2, TNF-α and IL-1β in joint sections: significantly reduced the expression of COX-2
C28/I2 chondrocytes
  Effect on chondrocyte proliferation: the proliferation decreased over time
